Source: paper PMC8213057, “Targeting ALK2: An Open Science Approach to Developing Therapeutics for the Treatment of Diffuse Intrinsic Pontine Glioma” (Journal of Medicinal Chemistry, 2020)

Columns and labels:
[1] = molecular target: PKCg (Homo sapiens, UniProt P05129); test: biochemical; settings: read-out: % enzyme activity, 1 μM; Run 1, Run 2
[2] = molecular target: EPHA5 (Homo sapiens, UniProt P54756); test: biochemical; settings: read-out: % enzyme activity, 1 μM; Run 1, Run 2
[3] = molecular target: T1, ULK2 (Homo sapiens, UniProt Q8IYT8); test: biochemical; settings: read-out: % enzyme activity, 1 μM; Run 1, Run 2
T1 sequence (Q8IYT8 1-1036): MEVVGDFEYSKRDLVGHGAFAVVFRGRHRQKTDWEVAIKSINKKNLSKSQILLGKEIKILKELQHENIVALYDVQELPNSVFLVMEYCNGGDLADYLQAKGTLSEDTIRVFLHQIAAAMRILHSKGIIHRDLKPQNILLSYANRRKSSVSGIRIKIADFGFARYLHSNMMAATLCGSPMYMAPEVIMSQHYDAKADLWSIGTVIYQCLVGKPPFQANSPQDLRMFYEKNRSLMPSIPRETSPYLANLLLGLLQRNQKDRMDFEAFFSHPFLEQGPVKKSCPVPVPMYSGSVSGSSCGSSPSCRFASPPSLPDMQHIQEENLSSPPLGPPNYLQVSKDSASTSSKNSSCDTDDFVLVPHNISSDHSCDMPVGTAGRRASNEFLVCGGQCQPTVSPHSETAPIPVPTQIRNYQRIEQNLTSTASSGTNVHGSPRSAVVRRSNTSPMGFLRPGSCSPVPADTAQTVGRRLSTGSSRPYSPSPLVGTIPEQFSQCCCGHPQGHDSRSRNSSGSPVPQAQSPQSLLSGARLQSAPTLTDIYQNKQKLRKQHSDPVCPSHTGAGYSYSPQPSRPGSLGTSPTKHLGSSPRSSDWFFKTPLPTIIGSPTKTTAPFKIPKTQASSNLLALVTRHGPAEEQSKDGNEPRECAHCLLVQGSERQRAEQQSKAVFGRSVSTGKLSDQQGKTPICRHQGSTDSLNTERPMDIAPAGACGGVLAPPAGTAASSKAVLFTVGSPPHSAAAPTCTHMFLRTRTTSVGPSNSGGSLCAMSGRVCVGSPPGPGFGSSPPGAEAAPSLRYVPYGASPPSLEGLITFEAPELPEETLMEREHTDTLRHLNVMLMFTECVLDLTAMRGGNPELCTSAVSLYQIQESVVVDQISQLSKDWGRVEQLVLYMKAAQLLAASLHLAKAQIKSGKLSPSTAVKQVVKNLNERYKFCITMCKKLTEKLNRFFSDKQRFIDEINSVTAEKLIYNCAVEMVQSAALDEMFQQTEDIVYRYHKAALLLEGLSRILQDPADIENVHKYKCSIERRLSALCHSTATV

[4] = molecular target: T2, TTBK1 (Homo sapiens, UniProt Q5TCY1); test: biochemical; settings: read-out: % enzyme activity, 1 μM; Run 1, Run 2
[5] = molecular target: CDK14/cyclin Y (PFTK1) (Homo sapiens, UniProt O94921); settings: 1 μM; Run 1, Run 2
[6] = molecular target: RET (Homo sapiens, UniProt P07949); settings: 1 μM; Run 1, Run 2
[7] = molecular target: T2, TTBK1; settings: 1 μM; Run 1, Run 2
[8] = molecular target: ERK1 (Homo sapiens, UniProt P27361); test: biochemical; settings: read-out: % enzyme activity, 1 μM; Run 1, Run 2
[9] = molecular target: CDK9/cyclin T2 (Homo sapiens, UniProt P50750); settings: 1 μM; Run 1, Run 2
[10] = molecular target: T3, ULK3 (Homo sapiens, UniProt Q6PHR2); test: biochemical; settings: read-out: % enzyme activity, 1 μM; Run 1, Run 2
T3 sequence (Q6PHR2 1-472): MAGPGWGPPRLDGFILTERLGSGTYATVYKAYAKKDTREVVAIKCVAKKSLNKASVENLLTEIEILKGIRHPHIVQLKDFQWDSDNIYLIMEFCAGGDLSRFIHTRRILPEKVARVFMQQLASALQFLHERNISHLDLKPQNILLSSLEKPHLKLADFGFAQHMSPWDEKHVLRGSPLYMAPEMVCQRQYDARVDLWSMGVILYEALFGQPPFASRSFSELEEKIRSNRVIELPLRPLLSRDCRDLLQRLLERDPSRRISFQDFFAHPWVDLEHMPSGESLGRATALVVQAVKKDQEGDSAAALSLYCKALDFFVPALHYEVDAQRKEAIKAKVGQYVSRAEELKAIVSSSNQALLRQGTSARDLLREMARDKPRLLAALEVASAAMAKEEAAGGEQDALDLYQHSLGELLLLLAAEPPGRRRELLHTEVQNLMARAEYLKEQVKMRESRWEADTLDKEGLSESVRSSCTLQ

[11] = molecular target: FGFR4 (Homo sapiens, UniProt P22455); test: biochemical; settings: read-out: % enzyme activity, 1 μM; Run 1, Run 2

T2 sequence (Q5TCY1 whole entry): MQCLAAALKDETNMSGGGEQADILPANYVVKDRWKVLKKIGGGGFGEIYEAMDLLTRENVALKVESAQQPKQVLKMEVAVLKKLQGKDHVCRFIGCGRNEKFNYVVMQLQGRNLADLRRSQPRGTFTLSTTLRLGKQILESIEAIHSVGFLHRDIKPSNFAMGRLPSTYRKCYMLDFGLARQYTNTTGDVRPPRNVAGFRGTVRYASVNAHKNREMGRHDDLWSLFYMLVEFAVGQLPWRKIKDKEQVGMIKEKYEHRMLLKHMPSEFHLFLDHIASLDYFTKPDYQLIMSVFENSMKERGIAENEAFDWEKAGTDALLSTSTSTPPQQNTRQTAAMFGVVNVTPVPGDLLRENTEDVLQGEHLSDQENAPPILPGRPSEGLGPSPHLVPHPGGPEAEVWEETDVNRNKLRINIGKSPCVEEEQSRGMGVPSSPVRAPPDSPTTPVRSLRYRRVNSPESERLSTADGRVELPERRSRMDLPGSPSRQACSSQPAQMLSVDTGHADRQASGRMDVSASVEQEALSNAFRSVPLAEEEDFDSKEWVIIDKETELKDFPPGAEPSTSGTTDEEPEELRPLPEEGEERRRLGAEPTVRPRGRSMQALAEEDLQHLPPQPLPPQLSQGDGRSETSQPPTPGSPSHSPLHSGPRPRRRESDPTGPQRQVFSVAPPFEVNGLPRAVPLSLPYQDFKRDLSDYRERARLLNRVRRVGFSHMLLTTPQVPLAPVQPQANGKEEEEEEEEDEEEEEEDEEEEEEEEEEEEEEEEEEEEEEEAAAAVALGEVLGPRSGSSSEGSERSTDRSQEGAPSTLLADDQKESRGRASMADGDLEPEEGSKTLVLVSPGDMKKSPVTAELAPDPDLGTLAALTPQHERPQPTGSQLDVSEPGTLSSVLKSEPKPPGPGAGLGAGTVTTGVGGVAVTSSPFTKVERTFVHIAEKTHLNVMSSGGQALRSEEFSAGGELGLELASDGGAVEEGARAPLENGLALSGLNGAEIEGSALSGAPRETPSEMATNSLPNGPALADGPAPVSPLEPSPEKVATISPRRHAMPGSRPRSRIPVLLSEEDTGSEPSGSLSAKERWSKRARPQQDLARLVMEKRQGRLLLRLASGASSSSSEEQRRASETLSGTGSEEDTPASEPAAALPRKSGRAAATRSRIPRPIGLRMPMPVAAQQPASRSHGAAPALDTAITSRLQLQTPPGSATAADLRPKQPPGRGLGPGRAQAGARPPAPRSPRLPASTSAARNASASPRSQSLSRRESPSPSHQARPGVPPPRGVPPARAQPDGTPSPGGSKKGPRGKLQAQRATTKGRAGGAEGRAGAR
Chain of RET (P07949 29-1114): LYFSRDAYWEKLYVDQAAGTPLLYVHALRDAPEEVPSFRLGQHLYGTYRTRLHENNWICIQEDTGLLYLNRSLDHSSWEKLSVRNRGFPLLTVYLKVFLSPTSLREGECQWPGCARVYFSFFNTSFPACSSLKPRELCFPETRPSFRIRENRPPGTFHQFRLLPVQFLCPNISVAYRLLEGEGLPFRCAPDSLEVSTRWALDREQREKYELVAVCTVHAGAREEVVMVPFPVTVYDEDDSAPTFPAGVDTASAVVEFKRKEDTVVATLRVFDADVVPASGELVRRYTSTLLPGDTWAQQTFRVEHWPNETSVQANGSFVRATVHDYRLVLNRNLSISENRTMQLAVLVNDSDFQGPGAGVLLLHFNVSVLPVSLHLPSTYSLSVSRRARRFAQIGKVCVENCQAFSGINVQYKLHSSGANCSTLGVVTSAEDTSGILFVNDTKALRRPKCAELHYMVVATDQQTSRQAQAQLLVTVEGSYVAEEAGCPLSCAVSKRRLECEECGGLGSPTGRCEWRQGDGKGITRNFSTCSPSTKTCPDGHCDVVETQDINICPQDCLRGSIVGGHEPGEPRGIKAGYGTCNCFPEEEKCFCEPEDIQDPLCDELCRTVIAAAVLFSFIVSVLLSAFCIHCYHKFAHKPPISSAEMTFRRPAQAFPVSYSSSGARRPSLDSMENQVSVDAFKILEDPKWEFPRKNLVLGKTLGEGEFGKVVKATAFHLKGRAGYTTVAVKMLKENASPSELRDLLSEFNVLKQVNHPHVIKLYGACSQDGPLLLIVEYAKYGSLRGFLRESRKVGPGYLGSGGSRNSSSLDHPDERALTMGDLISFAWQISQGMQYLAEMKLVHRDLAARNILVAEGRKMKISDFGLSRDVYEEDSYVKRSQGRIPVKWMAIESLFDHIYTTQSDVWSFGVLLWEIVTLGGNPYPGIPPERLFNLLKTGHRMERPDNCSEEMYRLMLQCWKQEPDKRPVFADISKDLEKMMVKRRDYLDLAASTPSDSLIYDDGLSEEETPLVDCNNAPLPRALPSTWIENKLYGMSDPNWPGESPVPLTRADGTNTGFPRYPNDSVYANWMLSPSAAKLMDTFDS
Chain of ERK1 (P27361 whole entry): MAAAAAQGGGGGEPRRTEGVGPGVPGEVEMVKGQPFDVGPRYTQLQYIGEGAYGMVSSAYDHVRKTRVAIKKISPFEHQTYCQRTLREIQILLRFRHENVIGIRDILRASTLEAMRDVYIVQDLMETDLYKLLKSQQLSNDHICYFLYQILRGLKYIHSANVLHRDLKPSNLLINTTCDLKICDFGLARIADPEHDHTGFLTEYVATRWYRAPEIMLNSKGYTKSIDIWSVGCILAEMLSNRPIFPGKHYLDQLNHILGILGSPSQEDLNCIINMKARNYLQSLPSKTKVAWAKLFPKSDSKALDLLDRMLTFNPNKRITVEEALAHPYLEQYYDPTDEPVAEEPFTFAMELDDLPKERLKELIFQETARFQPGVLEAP
Chain of CDK9/cyclin T2 (P50750 whole entry): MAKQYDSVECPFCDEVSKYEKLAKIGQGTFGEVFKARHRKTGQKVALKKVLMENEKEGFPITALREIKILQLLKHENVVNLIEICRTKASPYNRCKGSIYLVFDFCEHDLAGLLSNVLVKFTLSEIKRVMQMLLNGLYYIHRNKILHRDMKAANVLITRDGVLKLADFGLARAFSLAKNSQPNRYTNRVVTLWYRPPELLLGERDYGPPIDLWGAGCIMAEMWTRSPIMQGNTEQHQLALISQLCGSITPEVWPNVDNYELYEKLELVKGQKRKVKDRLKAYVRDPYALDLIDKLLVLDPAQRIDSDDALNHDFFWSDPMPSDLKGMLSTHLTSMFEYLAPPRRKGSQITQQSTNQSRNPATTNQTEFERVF
Chain of CDK9/cyclin T2 (O60583 whole entry partner): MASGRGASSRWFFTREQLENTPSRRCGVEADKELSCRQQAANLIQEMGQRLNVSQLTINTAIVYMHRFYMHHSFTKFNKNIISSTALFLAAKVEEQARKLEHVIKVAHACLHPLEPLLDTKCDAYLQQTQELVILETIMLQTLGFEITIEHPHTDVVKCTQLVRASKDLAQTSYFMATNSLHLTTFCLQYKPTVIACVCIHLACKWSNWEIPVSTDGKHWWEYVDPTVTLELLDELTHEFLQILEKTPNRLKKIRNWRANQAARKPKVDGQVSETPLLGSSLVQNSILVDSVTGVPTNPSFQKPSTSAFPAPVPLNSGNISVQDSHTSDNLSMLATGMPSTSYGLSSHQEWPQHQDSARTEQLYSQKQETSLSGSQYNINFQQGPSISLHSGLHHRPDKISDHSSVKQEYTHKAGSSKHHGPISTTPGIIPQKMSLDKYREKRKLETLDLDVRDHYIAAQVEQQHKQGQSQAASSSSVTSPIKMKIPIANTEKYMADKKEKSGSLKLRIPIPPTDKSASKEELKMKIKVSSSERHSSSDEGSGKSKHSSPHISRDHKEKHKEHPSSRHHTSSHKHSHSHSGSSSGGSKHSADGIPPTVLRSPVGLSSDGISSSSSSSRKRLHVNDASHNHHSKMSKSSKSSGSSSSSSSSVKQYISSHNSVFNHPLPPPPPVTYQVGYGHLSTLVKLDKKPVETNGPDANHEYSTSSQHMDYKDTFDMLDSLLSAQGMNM

Compound `COc1cc(-c2cncc(-c3ccc(N4CCN(C)CC4)cc3)c2C)cc(F)c1C(N)=O` [Compound 26a, 2-Fluoro-6-methoxy-4-(4-methyl-5-(4-(4-methylpiperazin-1-yl)phenyl)pyridin-3-yl)benzamide] has a remaining activity at 1 µM [1] of 97%, a remaining activity at 1 µM [2] of 92.2% and a remaining activity at 1 µM [3] of 73.7%. The remaining activity at 1 µM [4] was 97.3%, the “% enzyme activity” value [5] was 98.24% and the “% enzyme activity” value [6] was 94.34%. For the same compound, the “% enzyme activity” value [7] was 96.78%, the remaining activity at 1 µM [8] was 97.3% and the “% enzyme activity” value [9] was 99.00%. It also gave a remaining activity at 1 µM [10] of 91.5% and a remaining activity at 1 µM [11] of 98.2%.

`COc1cc(-c2cncc(-c3ccc(N4C[C@@H](C)N(C)[C@@H](C)C4)cc3)c2C)cc(F)c1C(N)=O` [Compound 26c, 2-Fluoro-6-methoxy-4-(4-methyl-5-(4-((3R,5S)-3,4,5-trimethylpiperazin-1-yl)phenyl)pyridin-3-yl)benzamide] was tested, and the remaining activity at 1 µM [1] was 97.2%, the remaining activity at 1 µM [2] was 92.7% and the remaining activity at 1 µM [3] was 85.2%. For the same compound, the remaining activity at 1 µM [4] was 99.4%, the “% enzyme activity” value [5] was 99.61% and the “% enzyme activity” value [6] was 93.64%. The “% enzyme activity” value [7] was 98.52%, the remaining activity at 1 µM [8] was 95.3% and the “% enzyme activity” value [9] was 100.35%. It also gave a remaining activity at 1 µM [10] of 98.8% and a remaining activity at 1 µM [11] of 99.6%.
